Results from paper PMC10824666 (Nature Cancer, 2023).
Read-outs that look alike come from different tables or passages of the source. Values belong to the compound of their own block, whether it stands above or below them.

Legend:
Assay in all cases: biochemical
Design in all cases: Eurofins DiscoverX kinase panel, competitive binding assay at 1 uM, percent of DMSO control
Conditions in all cases: competitive binding, percent of DMSO control
ROCK 2 = biological target: T1, ROCK 2 (Homo sapiens, UniProt O75116)
T1 construct: gene ROCK2
T1 sequence (O75116 whole entry): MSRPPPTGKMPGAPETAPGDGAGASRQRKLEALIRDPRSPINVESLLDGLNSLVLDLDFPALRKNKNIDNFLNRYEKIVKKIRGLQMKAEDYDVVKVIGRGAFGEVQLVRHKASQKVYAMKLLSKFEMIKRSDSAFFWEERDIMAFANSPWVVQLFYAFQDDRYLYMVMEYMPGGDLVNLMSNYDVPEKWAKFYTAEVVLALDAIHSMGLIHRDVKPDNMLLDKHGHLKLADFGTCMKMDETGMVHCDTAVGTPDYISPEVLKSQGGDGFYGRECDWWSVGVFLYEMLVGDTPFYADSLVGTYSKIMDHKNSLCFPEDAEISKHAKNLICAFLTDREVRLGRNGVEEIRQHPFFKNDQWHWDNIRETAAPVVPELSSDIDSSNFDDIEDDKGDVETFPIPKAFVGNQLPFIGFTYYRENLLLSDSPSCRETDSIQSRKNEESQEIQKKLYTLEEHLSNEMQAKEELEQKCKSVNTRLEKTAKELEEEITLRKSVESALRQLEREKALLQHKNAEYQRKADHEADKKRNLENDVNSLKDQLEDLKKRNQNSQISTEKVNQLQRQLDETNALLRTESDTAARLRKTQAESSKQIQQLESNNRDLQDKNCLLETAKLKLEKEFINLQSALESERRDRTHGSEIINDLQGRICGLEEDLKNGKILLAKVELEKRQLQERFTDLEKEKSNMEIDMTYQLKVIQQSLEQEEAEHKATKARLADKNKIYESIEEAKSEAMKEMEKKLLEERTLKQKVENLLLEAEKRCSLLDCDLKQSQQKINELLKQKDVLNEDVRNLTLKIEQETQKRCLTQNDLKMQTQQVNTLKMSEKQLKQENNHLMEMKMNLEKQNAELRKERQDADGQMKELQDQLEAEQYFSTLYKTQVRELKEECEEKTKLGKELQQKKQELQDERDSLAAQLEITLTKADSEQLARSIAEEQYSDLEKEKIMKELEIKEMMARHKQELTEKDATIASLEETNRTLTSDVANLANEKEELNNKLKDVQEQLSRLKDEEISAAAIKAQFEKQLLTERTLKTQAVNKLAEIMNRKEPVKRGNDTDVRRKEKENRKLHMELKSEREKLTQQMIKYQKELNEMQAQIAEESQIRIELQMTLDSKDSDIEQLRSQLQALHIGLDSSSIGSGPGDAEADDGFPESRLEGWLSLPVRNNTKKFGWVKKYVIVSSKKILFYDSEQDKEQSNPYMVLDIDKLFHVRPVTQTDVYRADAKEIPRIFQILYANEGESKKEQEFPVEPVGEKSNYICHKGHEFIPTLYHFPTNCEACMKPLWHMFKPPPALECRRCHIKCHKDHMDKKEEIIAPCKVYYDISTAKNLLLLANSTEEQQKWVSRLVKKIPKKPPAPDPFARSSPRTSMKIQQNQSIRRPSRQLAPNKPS
Summary of the method: (§1)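 Competitive binding assay across a 96-kinase panel with KIF18A compounds at 1 µM; values given as percentage of control (POC), single experiment.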

PI3K alpha = biological target: T2, PI3K alpha (Homo sapiens, UniProt P42336)
T2 construct: gene PIK3CA
T2 sequence (P42336 whole entry): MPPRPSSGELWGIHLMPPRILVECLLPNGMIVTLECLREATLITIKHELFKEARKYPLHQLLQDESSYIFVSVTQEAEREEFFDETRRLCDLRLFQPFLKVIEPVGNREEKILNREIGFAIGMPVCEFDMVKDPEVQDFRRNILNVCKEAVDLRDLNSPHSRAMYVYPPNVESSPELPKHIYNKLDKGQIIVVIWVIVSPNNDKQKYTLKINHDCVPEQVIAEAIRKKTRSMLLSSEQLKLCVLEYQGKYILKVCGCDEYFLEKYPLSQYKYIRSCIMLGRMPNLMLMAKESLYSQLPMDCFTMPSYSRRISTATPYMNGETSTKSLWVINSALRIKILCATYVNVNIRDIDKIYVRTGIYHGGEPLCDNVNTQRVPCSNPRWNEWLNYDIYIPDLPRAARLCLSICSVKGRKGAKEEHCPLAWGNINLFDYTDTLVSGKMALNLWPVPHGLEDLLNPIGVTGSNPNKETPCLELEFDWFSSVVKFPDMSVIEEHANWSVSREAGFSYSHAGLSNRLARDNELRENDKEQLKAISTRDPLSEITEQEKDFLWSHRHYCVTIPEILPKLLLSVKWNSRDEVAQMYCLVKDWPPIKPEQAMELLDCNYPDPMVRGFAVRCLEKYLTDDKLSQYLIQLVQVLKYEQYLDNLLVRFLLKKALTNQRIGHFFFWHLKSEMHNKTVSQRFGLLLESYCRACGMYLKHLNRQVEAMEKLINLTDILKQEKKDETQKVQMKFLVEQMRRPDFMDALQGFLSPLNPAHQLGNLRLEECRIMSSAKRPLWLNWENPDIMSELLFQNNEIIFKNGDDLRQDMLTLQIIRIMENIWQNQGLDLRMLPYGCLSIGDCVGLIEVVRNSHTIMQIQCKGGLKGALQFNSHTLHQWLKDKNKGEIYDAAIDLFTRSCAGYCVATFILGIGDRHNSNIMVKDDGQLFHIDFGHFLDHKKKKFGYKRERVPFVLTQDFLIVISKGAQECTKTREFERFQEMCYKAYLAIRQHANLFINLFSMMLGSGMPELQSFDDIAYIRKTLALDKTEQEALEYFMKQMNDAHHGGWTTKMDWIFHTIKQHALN
Summary of the method: as §1

GAK = biological target: T3, GAK (Homo sapiens, UniProt O14976)
T3 sequence (O14976 1-1311): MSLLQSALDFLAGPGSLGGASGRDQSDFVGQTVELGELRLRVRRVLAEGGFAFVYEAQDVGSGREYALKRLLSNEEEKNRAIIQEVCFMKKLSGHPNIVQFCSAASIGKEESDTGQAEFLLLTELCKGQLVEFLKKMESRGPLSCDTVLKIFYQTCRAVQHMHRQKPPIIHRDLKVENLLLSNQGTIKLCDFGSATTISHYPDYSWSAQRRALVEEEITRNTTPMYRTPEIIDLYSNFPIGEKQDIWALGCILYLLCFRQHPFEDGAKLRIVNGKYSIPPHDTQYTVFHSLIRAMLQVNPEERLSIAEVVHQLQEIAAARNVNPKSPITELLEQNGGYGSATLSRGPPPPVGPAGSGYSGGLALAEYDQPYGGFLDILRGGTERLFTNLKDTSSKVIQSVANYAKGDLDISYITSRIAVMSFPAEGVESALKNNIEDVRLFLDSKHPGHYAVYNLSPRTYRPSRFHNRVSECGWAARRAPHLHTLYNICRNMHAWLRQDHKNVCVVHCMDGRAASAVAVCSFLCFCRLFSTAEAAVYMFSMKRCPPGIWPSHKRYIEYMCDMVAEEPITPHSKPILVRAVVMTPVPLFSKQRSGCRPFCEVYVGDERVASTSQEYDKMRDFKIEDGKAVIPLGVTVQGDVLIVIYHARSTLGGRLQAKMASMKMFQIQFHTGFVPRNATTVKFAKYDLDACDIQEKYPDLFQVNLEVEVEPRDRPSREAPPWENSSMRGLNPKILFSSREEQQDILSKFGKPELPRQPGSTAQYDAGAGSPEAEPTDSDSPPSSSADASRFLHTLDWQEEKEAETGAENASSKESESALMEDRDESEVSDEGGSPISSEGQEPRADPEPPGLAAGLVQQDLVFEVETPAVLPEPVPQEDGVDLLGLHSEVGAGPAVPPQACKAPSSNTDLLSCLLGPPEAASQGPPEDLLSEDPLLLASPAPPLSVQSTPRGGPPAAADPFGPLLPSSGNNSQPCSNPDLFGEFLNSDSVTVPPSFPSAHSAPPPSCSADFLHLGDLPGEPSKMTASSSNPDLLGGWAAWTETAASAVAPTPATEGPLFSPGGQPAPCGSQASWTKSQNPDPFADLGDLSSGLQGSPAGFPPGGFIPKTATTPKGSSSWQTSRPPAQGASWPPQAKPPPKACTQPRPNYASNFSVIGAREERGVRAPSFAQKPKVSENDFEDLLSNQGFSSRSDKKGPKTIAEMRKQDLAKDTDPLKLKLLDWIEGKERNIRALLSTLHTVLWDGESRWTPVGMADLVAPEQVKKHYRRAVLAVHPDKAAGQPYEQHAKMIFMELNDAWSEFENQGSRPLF
Summary of the method: as §1

[1] = read-out: Kinome Profiling performed by Eurofins DiscoverX / AM-0277, 1.0 µM / POC
[2] = read-out: Kinome Profiling performed by Eurofins DiscoverX / AM-1882, 1.0 µM / POC
[3] = read-out: Kinome Profiling performed by Eurofins DiscoverX / AM-5308, 1.0 µM / POC

remaining activity at 1 µM (ROCK 2; [1]): 100%
remaining activity at 1 µM (PI3K alpha; [1]): 100%
remaining activity at 1 µM (GAK; [1]): 100%
SMILES: CC(C)(CO)Nc1ccc(C(=O)Nc2cccc(S(=O)(=O)C3CCCC3)c2)c(N2CCC3(CC2)CC3)n1 [AM-0277]

remaining activity at 1 µM (ROCK 2; [2]): 77%
remaining activity at 1 µM (PI3K alpha; [2]): 100%
remaining activity at 1 µM (GAK; [2]): 99.5%
SMILES: CC(C)(C)NS(=O)(=O)c1cccc(NC(=O)c2ccc(S(=O)(=O)NC(C)(C)C)cc2N2CCC3(CC2)CC3)c1 [AM-1882]

remaining activity at 1 µM (ROCK 2; [3]): 97.5%
remaining activity at 1 µM (PI3K alpha; [3]): 91.5%
remaining activity at 1 µM (GAK; [3]): 86%
SMILES: C[C@@H]1CN(c2cccc(NC(=O)c3ccc(NS(=O)(=O)CCO)cc3N3CCC4(CC3)CC4)n2)CCO1 [AM-5308]
